Laboratory results from patent US20230219912A1, “HALOGENATED BENZOTHIADIAZINES FOR THE TREATMENT OF CANCER” (BOARD OF REGENTS OF THE UNIVERSITY OF NEBRASKA, priority 2020, published 2023).
Several values for one entry are separate records, joined by “and”; a condition that tells them apart may be missing. Identical values can stand only once. Entries after “also recorded” stand apart in the source; their conditions may differ. Like-named read-outs stand apart in the source and are kept apart here.

Assays:
[1] = test system: 22Rv1 prostate cancer cells; assay: MTS cytotoxicity assay in 22Rv1 prostate cancer cells; details: Homo sapiens; for cytotoxicity at 100 µM: 22Rv1, 48 h, read-out: reduction of 22Rv1 cell viability
Method: (§1) The assay was performed as follows. To determine the cell growth inhibition ability of the synthesized compounds the (3-(4,5-dimethylthiazol-2-yl)-5-(3-carboxymethoxyphenyl)-2-(4-sulfophenyl)-2H-tetrazolium) (MTS) assay used according to the manufacturer's recommended protocol. Stock solutions of the synthesized compounds were prepared in DMSO. Cells were seeded at a density of 1×10^5 cells in 96-well plates. After 24 hours, cells were treated at the indicated concentrations of test compounds, limiting the final DMSO concentration to less than 1%. After incubation at 37° C. in an environment of 5% CO2 for 48-72 hours, 10 μL of MTS reagent (CellTiter 96© AQueous One Solution Reagent) was added to each well and incubated at the above mentioned conditions for 2-4 hr. Absorbance was recorded at 490 nm on a BioTek Synergy Mx multimode plate reader and the viability of cells were plotted as percentage of controls.

[2] = test system: MDA-MB-468 triple negative breast cancer cells; assay: MTS cytotoxicity assay in MDA-MB-468 triple negative breast cancer cells; assay type: cell-based; details: Homo sapiens, MDA-MB-468; 72 hours; mean ± SD n = 3
Method: The assay was performed as follows.
Derivatives were dosed at 10, 50 and 100 μM for 24, 48 and 72 hours and cell viability measured by MTS assay (FIG. 5).

[3] = test system: human embryonic kidney (HEK293) cells; assay: MTS cytotoxicity assay in HEK293 cells; assay type: cell-based; details: 72 hours, mean ± SD n = 3
Method: as §1
Cytotoxicity was also evaluated by using the low tumorigenic HEK293 cells at 50 μM concentration.

[4] = test system: Mitochondrial respiratory complex II (CII); details: literature, cited from earlier work
[5] = target: T1, Mitochondrial respiratory complex II (Rattus norvegicus, UniProt P21913+Q641Z9+Q6PCT8+Q920L2); assay: Mitochondrial respiratory complex II inhibition assay; assay type: biochemical; details: for inhibition at 100 µM: read-out: inhibition of CII
T1 construct: measured spectrophotometrically using isolated rat heart mitochondria; from tissue; host or cells: rat heart mitochondria / sub-mitochondrial particles
Method: The assay was performed as follows. Mitochondria were isolated either from fresh rat hearts or by differential centrifugation in sucrose-based buffer as previously described.^24 Complex II enzymatic activity was determined spectrophotometrically as the rate of succinate-driven, co-enzyme Q2-linked reduction of dichlorophenolindophenol (DCPIP).^49 Mitochondria or sub-mitochondrial particles were incubated in phosphate buffer (pH 7.4) containing 40 μM DCPIP, 1 mM KCN, 10 μM rotenone, and 50 μM co-enzyme Q2. The rate of reduction of DCPIP to DCPIPH2 was followed at […] (ε=21,000 M-1). Varying amounts of succinate and inhibitors were used to determine an IC50 value. At the end of each run thenoyltrifluoroacetone (1 mM) was added and the residual TTFA-insensitive rate subtracted.

[6] = test system: VEGF-induced proliferation of HUVEC cells; assay: VEGF-induced HUVEC proliferation, MTT assay; assay type: cell-based, human; details: for inhibition of VEGF-induced HUVEC proliferation (in words): 20 μM; for inhibition at 20 µM: Homo sapiens, read-out: % Inhibition of Proliferation
Method: The assay was performed as follows. Vascular endothelial growth factor (VEGF, Cat #SRP3182) was purchased from Sigma. […] Stock solutions of all compounds were prepared in DMSO and were serially diluted for cell culture treatment maintaining the final DMSO concentration at less than 1%. Cell proliferation of HUVECs was evaluated through the MTT (3-[4, 5-dimethylthiazol-2-yl]-2, 5-dimethyltetrazolium bromide) colorimetric assay, as previously described.^28 The HUVECs were seeded at a density of 10,000 cells/well in 24 well plates in serum-containing medium and cultured overnight. Cells were starved with 300 μL of assay media (0.1% BSA+0.1% FBS in basal medium) for 24 h. Then, cells were treated with 500 μL of assay medium (control group), VEGF (10 ng/mL, positive control group) or VEGF along with compounds (20 μM). After 48 h of culture, 50 μL of MTT stock (5 mg/mL in PBS) was added to each well and incubated for 2 h at 37° C. to allow the formation of dark blue formazan crystals in the metabolically active cells. The medium was removed, the cells were washed with PBS (pH 7.4), and 100 μL of acidified isopropanol (0.33 mL HCl in 100 mL isopropanol) was added to each well and incubated for 5 min with thorough agitation to solubilize the formazan crystals. An equal volume of the solution was transferred to a 96-well plate and the absorbance was immediately measured using a microplate reader at a wavelength of 570 nm.

[7] = test system: phosphorylated vascular endothelial growth factor receptor-2 (VEGFR2); assay: Western blot of pVEGFR2 in VEGF-treated HUVEC cells; assay type: cell-based, human; details: 20 μM, VEGF 10 ng/mL, 5 min
Method: Cells were treated with test compounds (20 μM) along with VEGF (10 ng/mL) for 5 min. The DMSO was used as a negative control, whereas DMSO+VEGF was used as a positive control. Cells were lysed using RIPA buffer (10 mmol/L Tris-HCl, 1 mmol/L EDTA, 0.5 mmol/L EGTA, 1% Triton X-100, 0.1% sodium deoxycholate, 0.1% SDS and 140 mmol/L NaCl), supplemented with protease and phosphatase inhibitors (Halt Protease and Phosphatase Inhibitor). Cell lysates were centrifuged, and the supernatants were mixed with appropriate amount of 5×SDS loading buffer. Proteins were resolved on polyacrylamide gel and transferred onto nitrocellulose/PVDF membrane, blocked for 1 hour with 10% milk block prepared in 0.1% Tween 20 in 1×PBS (PBST), and treated with pVEGFR2 primary antibody at 4° C. overnight. The membrane was washed thrice with PBST, 5 minutes each, and treated with secondary antibody for 1 hour. The membrane was further washed three times, 5 minutes each, with PBST and developed using chemiluminescence, and the bands were analyzed using densitometry.

[8] = 100 μM, relative to DMSO control
[9] = HUVEC, 48 h, 20 μM compound, VEGF 10 ng/mL, HUVEC, 48 h, relative to VEGF treated cells, mean ± SEM n = 3

T1 sequence (Q920L2 35-656): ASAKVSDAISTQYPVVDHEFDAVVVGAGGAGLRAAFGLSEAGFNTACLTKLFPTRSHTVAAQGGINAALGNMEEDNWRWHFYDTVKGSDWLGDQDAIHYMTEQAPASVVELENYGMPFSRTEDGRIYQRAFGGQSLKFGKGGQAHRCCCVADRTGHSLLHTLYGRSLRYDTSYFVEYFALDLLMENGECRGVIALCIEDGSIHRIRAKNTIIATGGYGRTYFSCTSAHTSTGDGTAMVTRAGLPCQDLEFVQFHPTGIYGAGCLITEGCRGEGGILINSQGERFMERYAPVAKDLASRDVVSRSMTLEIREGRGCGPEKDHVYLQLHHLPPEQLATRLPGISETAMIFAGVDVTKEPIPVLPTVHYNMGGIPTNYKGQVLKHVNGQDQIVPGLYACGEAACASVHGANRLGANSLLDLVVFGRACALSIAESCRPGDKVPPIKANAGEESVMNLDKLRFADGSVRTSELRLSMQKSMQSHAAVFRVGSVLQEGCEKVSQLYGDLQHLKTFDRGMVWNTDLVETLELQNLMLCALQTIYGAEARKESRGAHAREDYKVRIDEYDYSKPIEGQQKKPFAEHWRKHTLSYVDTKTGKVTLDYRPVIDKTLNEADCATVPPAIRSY
T1 sequence (P21913 31-282): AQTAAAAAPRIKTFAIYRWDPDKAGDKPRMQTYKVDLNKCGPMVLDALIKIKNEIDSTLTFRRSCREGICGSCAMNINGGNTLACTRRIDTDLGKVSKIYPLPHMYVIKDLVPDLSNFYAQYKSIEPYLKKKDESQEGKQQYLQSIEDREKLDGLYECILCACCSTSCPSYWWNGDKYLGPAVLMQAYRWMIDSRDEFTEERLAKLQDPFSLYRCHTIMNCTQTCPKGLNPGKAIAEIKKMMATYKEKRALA
T1 sequence (Q641Z9 1-169): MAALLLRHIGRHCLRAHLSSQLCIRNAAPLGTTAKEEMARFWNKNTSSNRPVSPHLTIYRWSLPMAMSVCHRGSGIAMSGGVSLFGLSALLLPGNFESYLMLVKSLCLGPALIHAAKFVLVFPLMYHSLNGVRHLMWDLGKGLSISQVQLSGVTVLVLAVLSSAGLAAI
T1 sequence (Q6PCT8 57-159): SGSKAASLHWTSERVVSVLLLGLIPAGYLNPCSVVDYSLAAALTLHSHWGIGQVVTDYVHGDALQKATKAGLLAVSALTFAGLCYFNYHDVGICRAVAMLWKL

Row | SMILES | IC50 [2] [µM] | IC50 [3] [µM] | inhibition of VEGF-induced HUVEC proliferation (in words) ([6]; VEGF 10 ng/mL) | inhibition at 20 µM [6, 9] [%] | also measured
1 | CCCCCC(=O)c1c(O)nc(OC)c(OC)c1O [AA5-16c, reference compound] | 6.71 ± 0.8 | 25.9 ± 2.4 | – | – | cytotoxicity at 20 µM ([1]; 22Rv1, read-out: reduction of 22Rv1 cell viability): 60%; IC50 [4]: 0.064 µM; ligand-lipophilicity efficiency [4]: 5.62
2 | COc1[nH]c(=O)c(C(=O)[C@@H](C)C[C@H](C)[C@@H](Cl)CCl)c(O)c1OC [Atpenin A5, reference compound] | – | – | – | – | inhibition of CII ([5]; 0.1 μM): 93%; IC50 ([5]; positive control, read-out: CII IC50): 0.0033 µM; IC50 [4]: 0.0033 µM; IC50 ([4]; listed as atpenin A5): 0.0036 to 0.01 µM
3 | O=S1(=O)N=C(NCc2ccccc2)Nc2cc(Cl)ccc21 [Compound 21b, 3-(benzylamino)-6-chloro-4H-benzo[e][1,2,4]thiadiazine 1,1-dioxide] | 64.2 ± 14.2 | 102 ± 16.1 | suppressed HUVEC proliferation; also recorded: enhanced activity | – | inhibition of CII [5, 8]: inactive; inhibition at 100 µM [5, 8]: 0%; cytotoxicity at 100 µM [1]: ~35%; % Inhibition of Proliferation ([6]; 20 μM compound, VEGF 10 ng/mL, HUVEC, 48 h, relative to VEGF treated cells, mean ± SEM n = 3, 20 µM): 200±12% and 125±10%
4 | O=S1(=O)N=C(NCCCc2ccccc2)Nc2cc(Cl)ccc21 [Compound 23b, 6-chloro-3-((3-phenylpropyl)amino)-4H-benzo[e][1,2,4]thiadiazine 1,1-dioxide] | 91.9 ± 16.8 | 111 ± 7.4 | suppressed HUVEC proliferation; also recorded: enhanced activity | 178 ± 8 | inhibition at 100 µM [5, 8]: 30%; cytotoxicity at 100 µM [1]: ~35%
5 | CC(NC1=NS(=O)(=O)c2ccccc2N1)c1ccccc1 (centres unmarked) [Compound 24d, 3-((1-phenylethyl)amino)-4H-benzo[e][1,2,4]thiadiazine 1,1-dioxide] | – | – | – | – | cytotoxicity at 100 µM [1]: ~30%; attenuation of pVEGFR2 expression [7]: outperformed the parent compound; also recorded: most potent
6 | O=S1(=O)N=C(NCc2ccc(F)cc2F)Nc2cc(Cl)ccc21 [Compound 29b, 6-chloro-3-((2,4-difluorobenzyl)amino)-4H-benzo[e][1,2,4]thiadiazine 1,1-dioxide] | 84.6 | 129 ± 12.2 | suppressed HUVEC proliferation; also recorded: enhanced activity | 167 ± 14 | –
7 | O=S1(=O)N=C(NCc2ccc(OC(F)(F)F)cc2)Nc2ccc(Br)cc21 [Compound 30c, 7-bromo-3-((4-(trifluoromethoxy)benzyl)amino)-4H-benzo[e][1,2,4]thiadiazine 1,1-dioxide] | – | – | – | – | inhibition at 100 µM [5, 8]: 21%; cytotoxicity at 100 µM [1]: 45%; attenuation of pVEGFR2 expression [7]: outperformed the parent compound
8 | O=S1(=O)N=C(NCc2ccccc2OC(F)(F)F)Nc2cc(Cl)ccc21 [Compound 43b, 6-Chloro-3-((2-(trifluoromethoxy)benzyl)amino)-4H-benzo[e][1,2,4]thiadiazine 1,1-dioxide] | 14.9 | 30.5 | suppressed HUVEC proliferation; also recorded: enhanced activity | 124 ± 4 | –
9 | Cc1cccc(CNC2=NS(=O)(=O)c3cc(Cl)ccc3N2)c1 [Compound 58e, 7-Chloro-3-((3-methylbenzyl)amino)-4H-benzo[e][1,2,4]thiadiazine1,1-dioxide] | – | – | suppressed HUVEC proliferation; also recorded: enhanced activity | – | inhibition at 20 µM ([6]; HUVEC, 48 h): 145 ± 6%; attenuation of pVEGFR2 expression [7]: outperformed the parent compound
10 | O=S1(=O)N=C(NC2CCCC2)Nc2ccc(Cl)cc21 [Compound 59e, 7-Chloro-3-(cyclopentylamino)-4H-benzo[e][1,2,4]thiadiazine 1,1-dioxide] | – | – | suppressed HUVEC proliferation; also recorded: enhanced activity | 133 ± 6 | attenuation of pVEGFR2 expression [7]: outperformed the parent compound; also recorded: most potent
11 | O=S1(=O)N=C(NCCCc2ccccc2)Nc2ccc(Cl)cc21 [Compound 60e, 7-Chloro-3-((3-phenylpropyl)amino)-4H-benzo[e][1,2,4]thiadiazine 1,1-dioxide] | – | 30.9 | suppressed HUVEC proliferation; also recorded: enhanced activity | 92 ± 15 | –
12 | COc1cccc(CNC2=NS(=O)(=O)c3cc(Cl)ccc3N2)c1 [Compound 62e, 7-Chloro-3-((3-methoxybenzyl)amino)-4H-benzo[e][1,2,4]thiadiazine 1,1-dioxide] | – | – | suppressed HUVEC proliferation; also recorded: enhanced activity | – | inhibition at 20 µM ([6]; HUVEC, 48 h): 96 ± 16%; attenuation of pVEGFR2 expression [7]: outperformed the parent compound; also recorded: most potent
13 | O=S1(=O)N=C(NCc2ccc(F)cc2F)Nc2ccc(Cl)cc21 [Compound 63e, 7-Chloro-3-((2,4-difluorobenzyl)amino)-4H-benzo[e][1,2,4]thiadiazine 1,1-dioxide] | 45.5 | 58.9 ± 13.7 | suppressed HUVEC proliferation; also recorded: enhanced activity | 133 ± 12 | –
14 | O=S1(=O)N=C(NCCCCc2ccccc2)Nc2ccc(Cl)cc21 [Compound 65e, 7-Chloro-3-((4-phenylbutyl)amino)-4H-benzo[e][1,2,4]thiadiazine 1,1-dioxide] | – | 23.4 | suppressed HUVEC proliferation; also recorded: enhanced activity | 116 ± 16 | –
15 | O=C(O)CC(=O)O [Malonate] | – | – | – | – | IC50 [4]: 40 µM
16 | CNC(=O)c1cc(Oc2ccc(NC(=O)Nc3ccc(Cl)c(C(F)(F)F)c3)cc2)ccn1 [Sorafenib, reference compound] | 7.31 ± 1.9 | 2.95 ± 0.1 | – | – | –
17 | O=C(CC(=O)C(F)(F)F)c1cccs1 [Thenoyltrifluoroacetone] | – | – | – | – | IC50 [4]: 30 µM
18 | Cc1c(C)c2c(c(C)c1OC(=O)CCC(=O)O)CC[C@@](C)(CCC[C@H](C)CCC[C@H](C)CCCC(C)C)O2 [α-Tocopheryl succinate] | – | – | – | – | IC50 [4]: 42 µM
